Values joined by “and” are separate entries in the source; they are usually repeats but may differ in a detail not shown here. Equal values may be shown once.

In data set [1] the test system is hepatic steatosis induced by MCD diet. The experiment in a line: Histological examination (H&E stain) of liver of MCD diet mice. The format is in vivo, Male C57BL/6 mice. As to conditions: for effect on MCD diet-induced steatohepatitis (H&E staining), in words / Steatosis / Ballooning / Fibrosis / Inflammation / Scores: MCD diet mice; for effect on MCD diet-induced steatohepatitis (H&E staining), in words / Avg / Ballooning / Fibrosis / Inflammation / Sum / Scores: 100 mg/kg oral; for Avg: average of Scores of the group; for Avg / Ballooning / Fibrosis / Inflammation / Sum / Scores: PG/TPSG (1:1); for Steatosis / Ballooning / Fibrosis / Inflammation: score per animal; for Steatosis: 100 mg/kg oral once daily, 5 times a week, in PG/TPSG (1:1); for Sum: sum of Scores of the 4 animals of the group; for Scores: total score per animal. How it is done: (§1) Animals and experimental protocol: Male C57BL/6 mice, 4 weeks of age, were purchased from Laboratory Animal Center (Taiwan, China) were maintained under the procedures and guidelines provided by the Institutional Animal Care and Use Committee of the Health Research Institutes (Taiwan, China). They were maintained with free access to pellet food and water in stainless-steel cages at a temperature of 21±2° C. with a 12 h light/dark cycle.
(§2) Mice were randomly divided into five groups and treated as follows: (1) MCD diet+PG/TPSG (2) MCD diet+100 mg/kg all compounds. After 28 days, animals were sacrificed for the collection of blood for determination of plasma ALT and AST concentrations, and liver samples for H&E stain.
(§3) After 28 days, animals were sacrificed for the collection of blood for determination of plasma ALT and AST concentrations, and liver samples for H&E stain.

The subject of a further data set is MCD diet NASH mice. The experiment in a line: Serum AST and ALT of compounds treated-NASH mice (MCD diet). The format is in vivo, Male C57BL/6 mice. The conditions noted are these: MCD diet mice; for Serum ALT (U/L) / Serum AST (U/L): 100 mg/kg oral, PG/TPSG (1:1). As for the experimental part:
as §1, §2, §3

A short description of data set [2]: In vitro stability in pH 1.2 solution (USP Gastric fluid without enzymes). The conditions noted are these: 37° C.
Experimental: Sample collection: At 0, 0.17, 0.5, 1, 2, 4 and 6 h, 100 mL of aliquots were taken from the incubation mixture and placed into centrifuge tubes containing 100 μL of ice-cold acetonitrile and 1 μm internal standard where the reaction was terminated.

As to `CCOc1cc(/C=C/c2ccc(OC(=O)OCCNC(=O)CN)cc2)cc(OCC)c1.Cl` [Compound 6b, (E)-2-(2-aminoacetamido)ethyl (4-(3,5-diethoxystyryl)phenyl) carbonate hydrochloride], in data set [1], the “effect on MCD diet-induced steatohepatitis (H&E staining), in words” value was “prevented MCD diet-induced steatohepatitis”; the Avg is on record as 7.00; the Ballooning is given as 2; the Fibrosis is 0. This molecule also came in with a Sum in data set [1] of 28. For the same molecule, in data set [1] (hydrochloride, 100 mg/kg), the Steatosis was 3 (2×) and 2 (2×); the Inflammation was 3 (2×) and 2 (2×); the Scores is 8 (2×) and 6 (2×). Further, in the data set on MCD diet NASH mice, the “Serum ALT (U/L)” value turned out to be 454.38 U/L and the “Serum AST (U/L)” value is listed as 408.75 U/L. In addition, the “compound remaining in pH = 1.2 solution (%)” value (“compound remaining … (%)” for short) in data set [2] (Time 0 h) worked out at 100.0%. In addition, the “compound remaining … (%)” value in data set [2] (Time 0.167 h) amounted to 130.5%. In data set [2] (Time 0.5 h), the “compound remaining … (%)” value was 103.9%. For the same molecule, in data set [2] (Time 1 h), the “compound remaining … (%)” value stood at 111.7%. Also, in data set [2] (Time 2 h), the “compound remaining … (%)” value turned out to be 97.9%. Moreover, the “compound remaining … (%)” value in data set [2] (Time 4 h) is on record as 99.2%.
In the case of `COc1cc(/C=C/c2ccc(OC(=O)OCCNC(=O)C(N)Cc3ncc[nH]3)cc2)cc(OC)c1.Cl.Cl` (stereo not shown) [Compound 5m, (E)-2-(2-amino-3-(1H-imidazol-2-yl)propanamido)ethyl (4-(3,5-dimethoxy styryl)phenyl) carbonate dihydrochloride], in data set [1], the “effect on MCD diet-induced steatohepatitis (H&E staining), in words” value is given as “prevented MCD diet-induced steatohepatitis”; the Avg is listed as 7.25; the Ballooning is recorded as 2; the Fibrosis is given as 0. In addition, the Sum in data set [1] worked out at 29. In data set [1] (dihydrochloride, 100 mg/kg), the Steatosis is 2 (2×) and 3 (2×); the Inflammation was 3 (3×) and 2; the Scores is 7 and 8 (2×) and 6. Also, the “effect on serum concentrations of AST and ALT, in words” value in the data set with MCD diet NASH mice (100 mg/kg oral (Table 2)) was “significantly inhibited the serum concentrations of AST and ALT”. Besides, in the data set with MCD diet NASH mice, the “Serum ALT (U/L)” value was 190.88 U/L and the “Serum AST (U/L)” value stood at 381.75 U/L. In data set [2] (Time 0 h), the “compound remaining … (%)” value is listed as 100.0%. For the same molecule, the “compound remaining … (%)” value in data set [2] (Time 0.167 h) is 88.6%. Further, the “compound remaining … (%)” value in data set [2] (Time 0.5 h) stood at 109.8%. For the same molecule, the “compound remaining … (%)” value in data set [2] (Time 1 h) came to 113.5%. The “compound remaining … (%)” value in data set [2] (Time 2 h) worked out at 102.6%. For the same molecule, the “compound remaining … (%)” value in data set [2] (Time 4 h) is 85.6%.
In data set [1], `COc1cc(/C=C/c2ccc(OC(=O)OCCNC(=O)CN)cc2)cc(OC)c1.O=C(O)c1cccnc1` [Compound 5v, (E)-2-(2-aminoacetamido)ethyl (4-(3,5-dimethoxystyryl)phenyl) carbonate nicotinate] came in with an Avg of 8.00, a Steatosis of 3, a Ballooning of 2 and a Fibrosis of 0. In data set [1], this molecule came in with an Inflammation of 3, a Sum of 32 and a Scores of 8. In the data set with MCD diet NASH mice, the “Serum ALT (U/L)” value turned out to be 430.13 U/L and the “Serum AST (U/L)” value was found to be 610.25 U/L. Besides, the “compound remaining … (%)” value in data set [2] (Time 0 h) came out at 100.0%. Besides, the “compound remaining … (%)” value in data set [2] (Time 0.167 h) worked out at 100.6%. In data set [2] (Time 0.5 h), the “compound remaining … (%)” value stood at 106.8%. The “compound remaining … (%)” value in data set [2] (Time 1 h) worked out at 101.0%. For the same molecule, in data set [2] (Time 2 h), the “compound remaining … (%)” value is 103.0%. For the same molecule, the “compound remaining … (%)” value in data set [2] (Time 4 h) is listed as 106.9%. For the same molecule, the “compound remaining … (%)” value in data set [2] (Time 6 h) is given as 84.8%.

These data come from patent publication US12466784B2, “Analogs of pterostilbene amino acid bearing carbonates for treating a non-alcoholic fatty liver disease and nonalcoholic steatohepatitis” (APICAL MOLECULAR BIOTECH CO., LTD., priority 2020, dated 2025).
